Reference: the supplement of paper PMC8612539

System: Histophilus somni
Assay: minimum inhibitory concentration (MIC)
Protocol: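 Broth microdilution MIC (Sensititre BOPO7F bovine plate, CLSI methods) of 19 antimicrobials against field isolates of P. multocida, M. haemolytica, H. somni (deep nasopharyngeal swabs) and E. coli, Enterococcus spp. (rectal swabs) from weaned dairy heifers. Incubation 16-24 h at 35 C. MIC is the lowest concentration preventing visible growth. Values with <= or > lie at the tested range limits. Trimethoprim-sulfamethoxazole is given as the trimethoprim component of a 1:19 mixture.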

COc1cc(Cc2cnc(N)nc2N)cc(OC)c1OC.Cc1cc(NS(=O)(=O)c2ccc(N)cc2)no1 [trimethoprim-sulfamethoxazole]
Details	minimum inhibitory concentration [µg/mL]
isolate (source animal id): 3	≤ 2
isolate (source animal id): 4	> 2
isolate (source animal id): 7	> 2
isolate (source animal id): 14	> 2
isolate (source animal id): 15	≤ 2
isolate (source animal id): 17	> 2
isolate (source animal id): 18	≤ 2
isolate (source animal id): 20	> 2
isolate (source animal id): 23	≤ 2
isolate (source animal id): 45	> 2
isolate (source animal id): 53	> 2
isolate (source animal id): 83	≤ 2
isolate (source animal id): 88	> 2
isolate (source animal id): 92	≤ 2
isolate (source animal id): 93	≤ 2
isolate (source animal id): 99	≤ 2
isolate (source animal id): 100	≤ 2
isolate (source animal id): 105	≤ 2
isolate (source animal id): 107	≤ 2
isolate (source animal id): 108	≤ 2
isolate (source animal id): 109	≤ 2
isolate (source animal id): 110	≤ 2
isolate (source animal id): 117	> 2
isolate (source animal id): 121	> 2
isolate (source animal id): 123	≤ 2
isolate (source animal id): 124	≤ 2
isolate (source animal id): 127	≤ 2
isolate (source animal id): 128	> 2
isolate (source animal id): 130	≤ 2
isolate (source animal id): 132	> 2
isolate (source animal id): 135	> 2
isolate (source animal id): 140	> 2
isolate (source animal id): 141	≤ 2
isolate (source animal id): 142	≤ 2
isolate (source animal id): 144	≤ 2
isolate (source animal id): 146	≤ 2
isolate (source animal id): 147	≤ 2
isolate (source animal id): 151	> 2
isolate (source animal id): 153	≤ 2
isolate (source animal id): 154	≤ 2
isolate (source animal id): 156	≤ 2
isolate (source animal id): 157	≤ 2
isolate (source animal id): 176	≤ 2
isolate (source animal id): 183	≤ 2
isolate (source animal id): 186	≤ 2
isolate (source animal id): 196	≤ 2
isolate (source animal id): 198	≤ 2
isolate (source animal id): 200	≤ 2
isolate (source animal id): 206	≤ 2
isolate (source animal id): 208	≤ 2
isolate (source animal id): 210	≤ 2
isolate (source animal id): 212	≤ 2
isolate (source animal id): 215	≤ 2
isolate (source animal id): 216	≤ 2
isolate (source animal id): 218	≤ 2
isolate (source animal id): 219	≤ 2
isolate (source animal id): 224	≤ 2
isolate (source animal id): 228	≤ 2
isolate (source animal id): 230	≤ 2
isolate (source animal id): 233	> 2
isolate (source animal id): 238	> 2
isolate (source animal id): 239	> 2
isolate (source animal id): 241	≤ 2
isolate (source animal id): 242	≤ 2
isolate (source animal id): 243	≤ 2
isolate (source animal id): 245	> 2
isolate (source animal id): 246	≤ 2
isolate (source animal id): 247	≤ 2
isolate (source animal id): 248	≤ 2
isolate (source animal id): 250	≤ 2
isolate (source animal id): 251	≤ 2
isolate (source animal id): 252	≤ 2
isolate (source animal id): 254	≤ 2
isolate (source animal id): 258	≤ 2
isolate (source animal id): 259	≤ 2
isolate (source animal id): 262	≤ 2
isolate (source animal id): 264	≤ 2
isolate (source animal id): 265	> 2
isolate (source animal id): 266	≤ 2
isolate (source animal id): 267	≤ 2
isolate (source animal id): 269	≤ 2
isolate (source animal id): 271	≤ 2
isolate (source animal id): 272	> 2
isolate (source animal id): 274	≤ 2
isolate (source animal id): 276	≤ 2
isolate (source animal id): 278	≤ 2
isolate (source animal id): 280	> 2
isolate (source animal id): 281	≤ 2
isolate (source animal id): 283	≤ 2
isolate (source animal id): 288	≤ 2
isolate (source animal id): 291	> 2
isolate (source animal id): 292	≤ 2
isolate (source animal id): 296	≤ 2
isolate (source animal id): 306	≤ 2
isolate (source animal id): 336	≤ 2
isolate (source animal id): 337	≤ 2
isolate (source animal id): 341	≤ 2
